Data reported in patent US20070049564A1 (Wyeth, priority 2005, published 2007).
≈ marks a conversion by molar mass, not a printed value. Like-named read-outs stand apart in the source and are kept apart here.

How the values were obtained:
[1] = tested on: E. coli; assay: Range of MIC for E. coli strains; conditions: Escherichia coli
[2] = tested on: Staph. aureus Smith; assay: In vivo activity (oral, iv; ED50) against Staph. aureus Smith in mice
[3] = tested on: Staph.; assay: Range of MIC for Staph. strains, including MRSA; conditions: Staphylococcus aureus
[4] = 20 h, read-out: Range of MIC, E. coli (Mouse Serum)
[5] = read-out: Range of MIC, E. coli (Water)
[6] = Staphylococcus aureus, in Mus musculus, po, read-out: ED50 Staph Smith SOD
[7] = iv, read-out: ED50 Staph Smith SIV
[8] = MRSA, read-out: Range of MIC, Staph (Mouse Serum)
[9] = MRSA, read-out: Range of MIC, Staph (Water)
[10] = read-out: Minimum inhibitory concentration (MIC), E. coli (mouse serum)
[11] = MRSA, read-out: Minimum inhibitory concentration (MIC), Staph. (mouse serum)
[12] = MRSA, read-out: Minimum inhibitory concentration (MIC), Staph. (water)
[13] = read-out: Minimum inhibitory concentration (MIC), E. coli (water)

Row | MIC [1, 4] | MIC [1, 5] | MIC [3, 8] | MIC [3, 9] | MIC [1, 10] | MIC [3, 11] | MIC [3, 12] | MIC [1, 13] | MIC ([1]; read-out: Minimum inhibitory concentration (MIC), E. coli (Human Serum)) | MIC ([3]; read-out: Minimum inhibitory concentration (MIC), Staph (Human Serum)) | MIC ([3]; read-out: Minimum inhibitory concentration (MIC), Staph (Water)) | SMILES | ED50 [2, 6] | ED50 [2, 7]
1 | 0.5 to 1 µg/mL | 1 to 4 µg/mL | 0.25 to 2 µg/mL | 0.5 to 4 µg/mL |  |  |  |  |  |  |  | CCCCN(CC(=O)Nc1cc(N(C)C)c2c(c1O)C(=O)C1=C(O)[C@]3(O)C(=O)C(C(N)=O)=C(O)[C@@H](N(C)C)C3CC1C2)C(=O)OC(C)OC(C)=O (stereo partly drawn) [Example 32, 1-({[(2-{[(7S,10aS)-9-(aminocarbonyl)-4,7-bis(dimethylamino)-1,8,10a,11-tetrahydroxy-10,12-dioxo-5,5a,6,6a,7,10,10a,12-octahydrotetracen-2-yl]amino}-2-oxoethyl)(butyl)amino]carbonyl}oxy)ethyl acetate] | 7.7 mg/kg | 0.56 mg/kg
2 | 0.5 to 1 µg/mL (≈ 0.663 to 1.33 µM) |  | 0.25 to 2 µg/mL (≈ 0.332 to 2.65 µM) | 1 to 8 µg/mL (≈ 1.33 to 10.6 µM) | 0.5 to 1 µg/mL (≈ 0.663 to 1.33 µM) | 0.25 to 2 µg/mL (≈ 0.332 to 2.65 µM) | 1 to 8 µg/mL (≈ 1.33 to 10.6 µM) |  |  |  |  | CCCCN(CC(=O)Nc1cc(N(C)C)c2c(c1O)C(=O)C1=C(O)[C@]3(O)C(=O)C(C(N)=O)=C(O)[C@@H](N(C)C)[C@@H]3C[C@@H]1C2)C(=O)OCOC(=O)c1ccco1 [Example 30, ({[(2-{[(5aR,6aS,7S,10aS)-9-(aminocarbonyl)-4,7-bis(dimethylamino)-1,8,10a,11-tetrahydroxy-10,12-dioxo-5,5a,6,6a,7,10,10a,12-octahydrotetracen-2-yl]amino}-2-oxoethyl)(butyl)amino]carbonyl}oxy)methyl 2-furate] | 15.1 mg/kg | 0.41 mg/kg
3 | 1 to 4 µg/mL (≈ 1.22 to 4.87 µM) | 16 to 32 µg/mL (≈ 19.5 to 38.9 µM) | 1 to 4 µg/mL (≈ 1.22 to 4.87 µM) | 2 to 16 µg/mL (≈ 2.43 to 19.5 µM) | 1 to 4 µg/mL (≈ 1.22 to 4.87 µM) | 1 to 4 µg/mL (≈ 1.22 to 4.87 µM) | 2 to 16 µg/mL (≈ 2.43 to 19.5 µM) | 16 to 32 µg/mL (≈ 19.5 to 38.9 µM) |  |  |  | CCCCN(CC(=O)Nc1cc(N(C)C)c2c(c1O)C(=O)C1=C(O)[C@]3(O)C(=O)C(C(N)=O)=C(O)[C@@H](N(C)C)[C@@H]3C[C@@H]1C2)C(=O)OCOC(=O)C12CC3CC(CC(C3)C1)C2 [Example 39, ({[(2-{[(5aR,6aS,7S,10aS)-9-(aminocarbonyl)-4,7-bis(dimethylamino)-1,8,10a,11-tetrahydroxy-10,12-dioxo-5,5a,6,6a,7,10,10a,12-octahydrotetracen-2-yl]amino}-2-oxoethyl)(butyl)amino]carbonyl}oxy)methyl adamantane-1-carboxylate] | 13.3 mg/kg | 0.6 mg/kg
4 | 1 to 4 µg/mL (≈ 1.2 to 4.8 µM) |  | 1 to 2 µg/mL (≈ 1.2 to 2.4 µM) | 32 to 64 µg/mL (≈ 38.4 to 76.8 µM) |  |  |  |  |  |  |  | CN(C)c1cc(NC(=O)CN(C(=O)OCOC(=O)c2ccc(N3CCCC3)cc2)C(C)(C)C)c(O)c2c1C[C@H]1C[C@H]3[C@H](N(C)C)C(O)=C(C(N)=O)C(=O)[C@@]3(O)C(O)=C1C2=O [Example 93, ({[(2-{[(5aR,6aS,7S,10aS)-9-(aminocarbonyl)-4,7-bis(dimethylamino)-1,8,10a,11-tetrahydroxy-10,12-dioxo-5,5a,6,6a,7,10,10a,12-octahydrotetracen-2-yl]amino}-2-oxoethyl)(tert-butyl)amino]carbonyl}oxy)methyl 4-pyrrolidin-1-ylbenzoate] | > 32 mg/kg | 0.5 to 1 mg/kg
5 | 0.5 to 4 µg/mL (≈ 0.608 to 4.87 µM) | > 64 µg/mL | 0.5 to 2 µg/mL (≈ 0.608 to 2.43 µM) | 4 to 16 µg/mL (≈ 4.87 to 19.5 µM) |  |  |  | > 64 µg/mL | > 64 µg/mL | 1 to 8 µg/mL (≈ 1.22 to 9.73 µM) | 4 to 16 µg/mL (≈ 4.87 to 19.5 µM) | CN(C)c1cc(NC(=O)CN(C(=O)OCOC(=O)C23CC4CC(CC(C4)C2)C3)C(C)(C)C)c(O)c2c1C[C@H]1C[C@H]3[C@H](N(C)C)C(O)=C(C(N)=O)C(=O)[C@@]3(O)C(O)=C1C2=O [Example 57, ({[(2-{[(5aR,6aS,7S,10aS)-9-(aminocarbonyl)-4,7-bis(dimethylamino)-1,8,10a,11-tetrahydroxy-10,12-dioxo-5,5a,6,6a,7,10,10a,12-octahydrotetracen-2-yl]amino}-2-oxoethyl)(tert-butyl)amino]carbonyl}oxy)methyl adamantane-1-carboxylate] | 6.36 mg/kg | 1.17 mg/kg
6 | 0.5 to 2 µg/mL (≈ 0.648 to 2.59 µM) | 32 to 64 µg/mL (≈ 41.5 to 82.9 µM) | 1 to 4 µg/mL (≈ 1.3 to 5.18 µM) | 2 to 32 µg/mL (≈ 2.59 to 41.5 µM) | 0.5 to 2 µg/mL (≈ 0.648 to 2.59 µM) | 1 to 4 µg/mL (≈ 1.3 to 5.18 µM) | 2 to 32 µg/mL (≈ 2.59 to 41.5 µM) | 32 to 64 µg/mL (≈ 41.5 to 82.9 µM) |  |  |  | CCCCCCC(=O)OCOC(=O)N(CCCC)CC(=O)Nc1cc(N(C)C)c2c(c1O)C(=O)C1=C(O)[C@]3(O)C(=O)C(C(N)=O)=C(O)[C@@H](N(C)C)[C@@H]3C[C@@H]1C2 [Example 17, ({[(2-{[(5aR,6aS,7S,10aS)-9-(aminocarbonyl)-4,7-bis(dimethylamino)-1,8,10a,11-tetrahydroxy-10,12-dioxo-5,5a,6,6a,7,10,10a,12-octahydrotetracen-2-yl]amino}-2-oxoethyl)(butyl)amino]carbonyl}oxy)methyl heptanoate] | 59.9 mg/kg | 1.07 mg/kg
7 | 1 to 4 µg/mL (≈ 1.2 to 4.8 µM) | 2 to 16 µg/mL (≈ 2.4 to 19.2 µM) | 4 to 16 µg/mL (≈ 4.8 to 19.2 µM) | 4 to 32 µg/mL (≈ 4.8 to 38.4 µM) |  |  |  |  |  |  |  | CCCCN(CC(=O)Nc1cc(N(C)C)c2c(c1O)C(=O)C1=C(O)[C@]3(O)C(=O)C(C(N)=O)=C(O)[C@@H](N(C)C)C3CC1C2)C(=O)OCc1oc(=O)oc1-c1ccc(OC)cc1 (stereo partly drawn) [Example 113, [5-(4-methoxyphenyl)-2-oxo-1,3-dioxol-4-yl]methyl 2-{[(7S,10aS)-9-(aminocarbonyl)-4,7-bis(dimethylamino)-1,8,10a,11-tetrahydroxy-10,12-dioxo-5,5a,6,6a,7,10,10a,12-octahydrotetracen-2-yl]amino}-2-oxoethyl(butyl)carbamate] | 7.01 mg/kg | 0.4 mg/kg
8 | 0.5 to 2 µg/mL (≈ 0.674 to 2.7 µM) | 4 to 8 µg/mL (≈ 5.39 to 10.8 µM) | 1 to 4 µg/mL (≈ 1.35 to 5.39 µM) | 1 to 4 µg/mL (≈ 1.35 to 5.39 µM) | 0.5 to 2 µg/mL (≈ 0.674 to 2.7 µM) | 1 to 4 µg/mL (≈ 1.35 to 5.39 µM) | 1 to 4 µg/mL (≈ 1.35 to 5.39 µM) | 4 to 8 µg/mL (≈ 5.39 to 10.8 µM) |  |  |  | CCCCN(CC(=O)Nc1cc(N(C)C)c2c(c1O)C(=O)C1=C(O)[C@]3(O)C(=O)C(C(N)=O)=C(O)[C@@H](N(C)C)[C@@H]3C[C@@H]1C2)C(=O)OCOC(=O)C1CCC1 [Example 18, ({[(2-{[(5aR,6aS,7S,10aS)-9-(aminocarbonyl)-4,7-bis(dimethylamino)-1,8,10a,11-tetrahydroxy-10,12-dioxo-5,5a,6,6a,7,10,10a,12-octahydrotetracen-2-yl]amino}-2-oxoethyl)(butyl)amino]carbonyl}oxy)methyl cyclobutanecarboxylate] | 29 mg/kg | 0.6 mg/kg
9 | 0.5 to 2 µg/mL (≈ 0.64 to 2.56 µM) | > 64 µg/mL | 0.12 to 0.25 µg/mL (≈ 0.153 to 0.32 µM) | 0.25 to 2 µg/mL (≈ 0.32 to 2.56 µM) |  |  |  |  |  |  |  | CN(C)c1cc(NC(=O)CN(C(=O)OCOC(=O)c2ccccc2F)C(C)(C)C)c(O)c2c1C[C@H]1C[C@H]3[C@H](N(C)C)C(O)=C(C(N)=O)C(=O)[C@@]3(O)C(O)=C1C2=O [Example 91, ({[(2-{[(5aR,6aS,7S,10aS)-9-(aminocarbonyl)-4,7-bis(dimethylamino)-1,8,10a,11-tetrahydroxy-10,12-dioxo-5,5a,6,6a,7,10,10a,12-octahydrotetracen-2-yl]amino}-2-oxoethyl)(tert-butyl)amino]carbonyl}oxy)methyl 2-fluorobenzoate] | 11.7 mg/kg | 1.21 mg/kg
10 | 0.5 to 2 µg/mL (≈ 0.61 to 2.44 µM) | > 64 µg/mL | 1 to 4 µg/mL (≈ 1.22 to 4.88 µM) |  | 0.5 to 2 µg/mL (≈ 0.61 to 2.44 µM) | 1 to 4 µg/mL (≈ 1.22 to 4.88 µM) |  | > 64 µg/mL |  |  |  | CCCCN(CC(=O)Nc1cc(N(C)C)c2c(c1O)C(=O)C1=C(O)[C@]3(O)C(=O)C(C(N)=O)=C(O)[C@@H](N(C)C)[C@@H]3C[C@@H]1C2)C(=O)OCOC(=O)c1ccc(C(C)(C)C)cc1 [Example 20, ({[(2-{[(5aR,6aS,7S,10aS)-9-(aminocarbonyl)-4,7-bis(dimethylamino)-1,8,10a,11-tetrahydroxy-10,12-dioxo-5,5a,6,6a,7,10,10a,12-octahydrotetracen-2-yl]amino}-2-oxoethyl)(butyl)amino]carbonyl}oxy)methyl 4-tert-butylbenzoate] | 19.4 mg/kg | 0.6 mg/kg
11 |  | > 64 µg/mL | 2 to 4 µg/mL (≈ 2.95 to 5.89 µM) | 4 to 32 µg/mL (≈ 5.89 to 47.1 µM) |  |  |  |  |  |  |  | Cc1cc(C)cc(C(=O)OCOC(=O)Nc2cc(N(C)C)c3c(c2O)C(=O)C2=C(O)[C@]4(O)C(=O)C(C(N)=O)=C(O)[C@@H](N(C)C)[C@@H]4C[C@@H]2C3)c1 [Example 77, [({[(5aR,6aS,7S,10aS)-9-(aminocarbonyl)-4,7-bis(dimethylamino)-1,8,10a,11-tetrahydroxy-10,12-dioxo-5,5a,6,6a,7,10,10a,12-octahydrotetracen-2-yl]amino}carbonyl)oxy]methyl 3,5-dimethylbenzoate] |  | 
12 | 0.5 to 1 µg/mL (≈ 0.623 to 1.25 µM) | > 64 µg/mL | 1 to 4 µg/mL (≈ 1.25 to 4.98 µM) | 4 to 8 µg/mL (≈ 4.98 to 9.96 µM) |  |  |  |  |  |  |  | CN(C)c1cc(NC(=O)CN(C(=O)OCOC(=O)c2cc3ccccc3[nH]2)C(C)(C)C)c(O)c2c1C[C@H]1C[C@H]3[C@H](N(C)C)C(O)=C(C(N)=O)C(=O)[C@@]3(O)C(O)=C1C2=O [Example 73, ({[(2-{[(5aR,6aS,7S,10aS)-9-(aminocarbonyl)-4,7-bis(dimethylamino)-1,8,10a,11-tetrahydroxy-10,12-dioxo-5,5a,6,6a,7,10,10a,12-octahydrotetracen-2-yl]amino}-2-oxoethyl)(tert-butyl)amino]carbonyl}oxy)methyl 1H-indole-2-carboxylate] |  | 
